The values that follow come from ChEMBL document CHEMBL5634184, “Direct Inhibition of BK Channels by Cannabidiol, One of the Principal Therapeutic Cannabinoids Derived from Cannabis sativa” (J Nat Prod, 2024).

pIC50: −log10 of the molar value. The source made the active and inactive calls. The rule behind the calls is not given here.

In test [1] the target is T1, Calcium-activated potassium channel subunit alpha-1 (Homo sapiens, UniProt Q12791). Description: Inhibition of human KCNMA1 expressed in HEK293 cells assessed as reduction in amplitude current at 1 uM by inside-out configuration based patch clamp method. In kind it is cell-based. Background: Patch clamp records ionic current or voltage across a cell membrane.
For test [2], the target named is T1, Calcium-activated potassium channel subunit alpha-1. Description: Inhibition of human KCNMA1 expressed in HEK293 cells assessed as reduction in amplitude current at 10 uM by inside-out configuration based patch clamp method relative to control. The test is classed as cell-based.
The target is the same in test [3]. Description: Inhibition of human KCNMA1 expressed in HEK293 cells assessed as reduction in 100+ mV pulse elicited current by inside-out configuration based patch clamp method. The test is classed as cell-based.
Test [4] has the same target. The experiment in a line: Inhibition of human KCNMA1 expressed in HEK293 cells assessed as decrease in maximal conductance at 0.3 to 10 uM by inside-out configuration based patch clamp method. Particulars: dose 0.3-10 µM. In kind it is cell-based.
The target is the same in test [5]. Description: Inhibition of human KCNMA1 expressed in HEK293 cells assessed as shift in activation curve to depolarized voltage (deltaV1/2) at 0.3 to 10 uM by inside-out configuration based patch clamp method. The test is classed as cell-based. As to conditions: dose 0.3-10 µM.
Test [6] has the same target. The experiment in a line: Inhibition of human KCNMA1 expressed in HEK293 cells assessed increase in time constant value of voltage activation at 1 uM by inside-out configuration based patch clamp method. The test is classed as cell-based.
Test [7] shares this target. The experiment in a line: Inhibition of human KCNMA1 expressed in HEK293 cells assessed effect on deactivation kinetics at 1 uM by inside-out configuration based patch clamp method. In kind it is cell-based.
For test [8] the target is unchanged. Description: Reversible inhibition of human KCNMA1 expressed in HEK293 cells at 1 uM by whole cell configuration based patch clamp method.
Test [9] has the same target. Description: Inhibition of human KCNMA1 expressed in HEK293 cells assessed as reduction in maximal conductance at 1 uM by whole cell configuration based patch clamp method.
For test [10] the target is unchanged. Description: Inhibition of human KCNMA1 expressed in HEK293 cells assessed as shift to depolarized potential at 1 uM by whole cell configuration based patch clamp method.
For test [11] the target is unchanged. The experiment in a line: Inhibition of human KCNMA1 expressed in HEK293 cells assessed as reduction in voltage activation kinetics at 1 uM by whole cell configuration based patch clamp method.
For test [12] the target is unchanged. Description: Inhibition of human KCNMA1 expressed in HEK293 cells assessed as decrease in open probability at 3 uM under single channel current. In kind it is cell-based.
For test [13] the target is unchanged. Description: Inhibition of human KCNMA1 expressed in HEK293 cells assessed as reduction in open probability at 3 uM at -40 mV relative to control. In kind it is cell-based.
Test [14] has the same target. The experiment in a line: Inhibition of human KCNMA1 expressed in HEK293 cells assessed as increase in mean closed times at 3 uM at -40 mV (reference value: 33=/-12 ms). The test is classed as cell-based.
The target is the same in test [15]. Description: Inhibition of human KCNMA1 expressed in HEK293 cells assessed as reduction in unitary conductance at 3 uM (reference value: 242+/-10 pS). The test is classed as cell-based.

T1 sequence (Q12791 whole entry): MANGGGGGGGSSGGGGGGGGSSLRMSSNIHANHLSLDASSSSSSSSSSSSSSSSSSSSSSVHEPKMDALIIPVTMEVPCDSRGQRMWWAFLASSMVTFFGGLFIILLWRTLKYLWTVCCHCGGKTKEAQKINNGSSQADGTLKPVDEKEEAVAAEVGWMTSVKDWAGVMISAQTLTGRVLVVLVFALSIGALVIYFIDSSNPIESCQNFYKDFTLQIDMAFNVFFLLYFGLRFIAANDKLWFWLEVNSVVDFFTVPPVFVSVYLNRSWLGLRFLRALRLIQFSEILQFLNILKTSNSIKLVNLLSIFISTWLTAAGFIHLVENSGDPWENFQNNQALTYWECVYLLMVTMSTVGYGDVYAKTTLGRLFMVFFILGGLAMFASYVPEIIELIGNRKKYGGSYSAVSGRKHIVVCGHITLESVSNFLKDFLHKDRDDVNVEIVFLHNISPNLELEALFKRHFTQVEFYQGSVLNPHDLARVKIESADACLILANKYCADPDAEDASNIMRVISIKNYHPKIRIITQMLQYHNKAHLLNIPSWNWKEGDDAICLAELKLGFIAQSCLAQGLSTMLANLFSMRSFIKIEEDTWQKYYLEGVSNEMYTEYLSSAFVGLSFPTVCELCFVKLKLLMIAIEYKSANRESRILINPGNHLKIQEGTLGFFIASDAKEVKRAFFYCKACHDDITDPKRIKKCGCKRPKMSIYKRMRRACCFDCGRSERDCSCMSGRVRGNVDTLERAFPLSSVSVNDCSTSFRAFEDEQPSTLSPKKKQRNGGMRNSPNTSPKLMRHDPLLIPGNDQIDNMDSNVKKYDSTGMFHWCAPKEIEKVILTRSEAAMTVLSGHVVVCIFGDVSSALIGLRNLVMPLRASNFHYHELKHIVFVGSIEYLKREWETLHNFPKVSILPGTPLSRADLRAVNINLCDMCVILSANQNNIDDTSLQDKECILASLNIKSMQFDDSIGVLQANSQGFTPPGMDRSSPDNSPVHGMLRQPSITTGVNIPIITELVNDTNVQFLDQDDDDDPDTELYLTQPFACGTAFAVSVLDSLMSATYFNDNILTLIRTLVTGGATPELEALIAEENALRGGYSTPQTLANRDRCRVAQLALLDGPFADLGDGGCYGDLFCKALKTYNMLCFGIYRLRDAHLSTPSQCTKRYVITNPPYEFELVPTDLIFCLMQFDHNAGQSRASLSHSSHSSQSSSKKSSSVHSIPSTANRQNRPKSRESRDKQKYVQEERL

Regarding `C=C(C)[C@@H]1CCC(C)=C[C@H]1c1c(O)cc(CCCCC)cc1O` [CANNABIDIOL], the inhibition result in [1], in [4], in test [5], in test [6], in test [8] and in [9] was “Active” each time. Further, the inhibition entry in [10], in [11] and in test [12] was “Active” in each case. Moreover, the results for the inhibition in test [2] and in test [13] were 100% and 87.4%, respectively. In addition, the pIC50 – broadly, −log10 of the IC50, conventionally taken in molar units – in test [3] was 6.55. Further, the inhibition (in general, the percentage by which the read-out fell short of the control) in test [7] is “inactive”. Further, the Time in test [14] came to 9.11e-05 h; in test [15], 182 pS.
